Structures are written as SMILES.

One data set concerns glutathione (GSH). As to the kind of experiment: Reactivity Profiling with Glutathione (GSH), half-life by HPLC. Conditions: 5 mM glutathione (GSH) in IMDM with 10% FBS.
The next data set concerns MV4-11 cells. Briefly: MV4-11 Cell Cytotoxicity Assay (CellTiter-Blue, 72 h). The format is cell-based, human. Conditions: Homo sapiens, MV4-11; MV-4-11 cells. In outline:
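Cells seeded 24 h before treatment, then exposed 72 h at 37° C, 5% CO2 to inhibitors in triplicate, top concentration 50 μM with 1:2 serial dilutions (0.5% DMSO vehicle). Viability read by CellTiter-Blue fluorescence at 560/590 nm after 1 h.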

`COc1cc(C(=O)O)ccc1N(Cc1cc(C2CC2)cc(C(C)(C)C)c1)C(=O)CN(Cc1cccnc1C(F)(F)F)S(=O)(=O)c1c(F)c(F)c(F)c(F)c1F` [Compound 1097, 4-(N-(3-(tert-butyl)-5-cyclopropylbenzyl)-2-(N-((2-(trifluoromethyl)pyridin-3-yl)methyl)-(2,3,4,5,6-pentafluoro-phenyl)sulfonamido)acetamido)-3-methoxybenzoic acid] showed a half-life at 25 μM in the data set on glutathione (GSH) of 4.12 to 9.23 h. In the data set on MV4-11 cells, this compound yielded an IC50 of 316 to 1000 nM.
In the same order, the values of `O=C(O)c1ccc(N(Cc2cc(C3CC3)cc(C3CC3)c2)C(=O)CN(Cc2ccccc2F)S(=O)(=O)c2c(F)c(F)c(F)c(F)c2F)c(OC2CC2)c1` [Compound 1099, 3-cyclopropoxy-4-(N-(3,5-dicyclopropylbenzyl)-2-(N-(2-fluorobenzyl)-(2,3,4,5,6-pentafluoro-phenyl)sulfonamido)acetamido)benzoic acid] are 4.12 to 9.23 h and 0.01 to 316 nM.
The corresponding values for `CC(C)(C)c1cc(CN(C(=O)CN(C2CC2)S(=O)(=O)c2c(F)c(F)c(F)c(F)c2F)c2ccc(C(=O)O)cc2OC2CC2)cc(C2CC2)c1` [Compound 1100, 4-(N-(3-(tert-butyl)-5-cyclopropylbenzyl)-2-(N-cyclopropyl-(2,3,4,5,6-pentafluorophenyl)sulfon-amido)acetamido)-3-cyclopropoxybenzoic acid] are 0.00167 to 2.37 h and 316 to 1000 nM.
In the same order, the values of `CN(C)c1cc(C(=O)O)ccc1N(Cc1cc(C2CC2)cc(C(C)(C)C)c1)C(=O)CN(Cc1ccccc1F)S(=O)(=O)c1c(F)c(F)c(F)c(F)c1F` [Compound 1105, 4-(N-(3-(tert-butyl)-5-cyclopropylbenzyl)-2-(N-(2-fluorobenzyl)-(2,3,4,5,6-pentafluoro-phenyl)sulfonamido)acetamido)-3-(dimethylamino)benzoic acid] are 4.12 to 9.23 h and 0.01 to 316 nM.
`CC(C)(C)c1cc(CN(C(=O)CN(Cc2ccccc2F)S(=O)(=O)c2c(F)c(F)c(F)c(F)c2F)c2cc(C(=O)O)ccc2OC2CC2)cc(C2CC2)c1` [Compound 1110, 3-(N-(3-(tert-butyl)-5-cyclopropylbenzyl)-2-(N-(2-fluorobenzyl)-(2,3,4,5,6-pentafluoro-phenyl)sulfonamido)acetamido)-4-cyclopropoxybenzoic acid] returned a half-life at 25 μM in the data set with glutathione (GSH) of 2.37 to 4.12 h. This compound displayed an IC50 in the data set with MV4-11 cells of 316 to 1000 nM.
On to `CC(C)(C)c1cc(CN(C(=O)CN(Cc2ncccc2C(F)(F)F)S(=O)(=O)c2c(F)c(F)c(F)c(F)c2F)c2ccc(C(=O)O)cc2C2CC2)cc(C2CC2)c1` [Compound 1115, 4-(N-(3-(tert-butyl)-5-cyclopropylbenzyl)-2-(N-((3-(trifluoromethyl)pyridin-2-yl)methyl)-(2,3,4,5,6-pentafluoro-phenyl)sulfonamido)acetamido)-3-cyclopropylbenzoic acid], for which the half-life at 25 μM in the data set on glutathione (GSH) was in the range of 4.12 to 9.23 h. The compound further displayed an IC50 with MV4-11 cells of 0.01 to 316 nM.
In the data set with glutathione (GSH), `COc1cc(C(=O)O)ccc1N(Cc1cc(C2CC2)cc(C(C)(C)C)c1)C(=O)CN(Cc1ccc(C(F)(F)F)cn1)S(=O)(=O)c1c(F)c(F)c(F)c(F)c1F` [Compound 1117, 4-(N-(3-(tert-butyl)-5-cyclopropylbenzyl)-2-(N-((5-(trifluoromethyl)pyridin-2-yl)methyl)-(2,3,4,5,6-pentafluoro-phenyl)sulfonamido)acetamido)-3-methoxybenzoic acid] had a half-life at 25 μM of 2.37 to 4.12 h. The compound also returned an IC50 in the data set on MV4-11 cells of 316 to 1000 nM.
The corresponding values for `COc1cc(C(=O)O)ccc1N(Cc1cc(C2CC2)cc(C(C)(C)C)c1)C(=O)CN(Cc1cccc(C(F)(F)F)n1)S(=O)(=O)c1c(F)c(F)c(F)c(F)c1F` [Compound 1118, 4-(N-(3-(tert-butyl)-5-cyclopropylbenzyl)-2-(N-((6-(trifluoromethyl)pyridin-2-yl)methyl)-(2,3,4,5,6-pentafluoro-phenyl)sulfonamido)acetamido)-3-methoxybenzoic acid] are 0.00167 to 2.37 h and 316 to 1000 nM.
In the same order, the values of `CN(C)c1cc(C(=O)O)c(F)cc1N(Cc1cc(C2CC2)cc(C(C)(C)C)c1)C(=O)CN(Cc1c(F)cc(F)cc1F)S(=O)(=O)c1c(F)c(F)c(F)c(F)c1F` [Compound 1124, 4-(N-(3-(tert-butyl)-5-cyclopropylbenzyl)-2-(N-(2,4,6-trifluorobenzyl)-(2,3,4,5,6-pentafluoro-phenyl)sulfonamido)acetamido)-5-(dimethylamino)-2-fluorobenzoic acid] are 4.12 to 9.23 h and 0.01 to 316 nM.
The corresponding values for `O=C(O)c1ccc(N(Cc2ccccc2)C(=O)CN(Cc2ccccc2C(F)(F)F)S(=O)(=O)c2c(F)c(F)c(F)c(F)c2F)c(OC2CC2)c1` [Compound 1126, 4-(N-benzyl-2-(N-(2-(trifluoromethyl)benzyl)-(2,3,4,5,6-pentafluoro-phenyl)sulfonamido)acetamido)-3-cyclopropoxybenzoic acid] are 0.00167 to 2.37 h and 1000 to 3160 nM.
The compound `O=C(O)c1ccc(N(Cc2ncccn2)C(=O)CN(Cc2ccccc2C(F)(F)F)S(=O)(=O)c2c(F)c(F)c(F)c(F)c2F)c(OC2CC2)c1` [Compound 1128, 3-cyclopropoxy-4-(2-(N-(2-(trifluoromethyl)benzyl)-(2,3,4,5,6-pentafluoro-phenyl)sulfonamido)-N-(pyrimidin-2-ylmethyl)acetamido) benzoic acid] showed a half-life at 25 μM with glutathione (GSH) of 0.00167 to 2.37 h. In the data set on MV4-11 cells, this compound showed an IC50 of 1000 to 3160 nM.
The corresponding values for `O=C(O)c1ccc(N(C(=O)CN(Cc2ccccc2C(F)(F)F)S(=O)(=O)c2c(F)c(F)c(F)c(F)c2F)C2CCC2)c(OC2CC2)c1` [Compound 1129, 4-(N-cyclobutyl-2-(N-(2-(trifluoromethyl)benzyl)-(2,3,4,5,6-pentafluoro-phenyl)sulfonamido)acetamido)-3-cyclopropoxybenzoic acid] are 2.37 to 4.12 h and 3160 to 100000 nM.
The corresponding values for `COc1cc(C(=O)O)ccc1N(Cc1cc(C2CC2)cc(C(C)(C)C)c1)C(=O)CN(Cc1ccncc1C(F)(F)F)S(=O)(=O)c1c(F)c(F)c(F)c(F)c1F` [Compound 1130, 4-(N-(3-(tert-butyl)-5-cyclopropylbenzyl)-2-(N-((3-(trifluoromethyl)pyridin-4-yl)methyl)-(2,3,4,5,6-pentafluoro-phenyl)sulfonamido)acetamido)-3-methoxybenzoic acid] are 2.37 to 4.12 h and 316 to 1000 nM.
In turn, `COc1cc(C(=O)O)ccc1N(Cc1cc(C2CC2)cc(C(C)(C)C)c1)C(=O)CN(Cc1ccc(C(F)(F)F)nc1)S(=O)(=O)c1c(F)c(F)c(F)c(F)c1F` [Compound 1132, 4-(N-(3-(tert-butyl)-5-cyclopropylbenzyl)-2-(N-((6-(trifluoromethyl)pyridin-3-yl)methyl)-(2,3,4,5,6-pentafluoro-phenyl)sulfonamido)acetamido)-3-methoxybenzoic acid] had a half-life at 25 μM in the data set on glutathione (GSH) of 2.37 to 4.12 h. Moreover, the IC50 with MV4-11 cells fell in the range of 316 to 1000 nM.
Compound `COc1cc(C(=O)O)ccc1N(Cc1cc(C2CC2)cc(C(C)(C)C)c1)C(=O)CN(Cc1ccnc(C(F)(F)F)c1)S(=O)(=O)c1c(F)c(F)c(F)c(F)c1F` [Compound 1133, 4-(N-(3-(tert-butyl)-5-cyclopropylbenzyl)-2-(N-((2-(trifluoromethyl)pyridin-4-yl)methyl)-(2,3,4,5,6-pentafluoro-phenyl)sulfonamido)acetamido)-3-methoxybenzoic acid] registered a half-life at 25 μM in the data set on glutathione (GSH) of 0.00167 to 2.37 h. The compound further came in with an IC50 in the data set on MV4-11 cells of 316 to 1000 nM.
In the same order, the values of `COc1cc(C(=O)O)ccc1N(Cc1cc(C2CC2)cc(C(C)(C)C)c1)C(=O)CN(Cc1cc(C(F)(F)F)ccn1)S(=O)(=O)c1c(F)c(F)c(F)c(F)c1F` [Compound 1134, 4-(N-(3-(tert-butyl)-5-cyclopropylbenzyl)-2-(N-((4-(trifluoromethyl)pyridin-2-yl)methyl)-(2,3,4,5,6-pentafluoro-phenyl)sulfonamido)acetamido)-3-methoxybenzoic acid] are 2.37 to 4.12 h and 1000 to 3160 nM.
In the case of `CC(C)(C)c1cc(CN(C(=O)CN(Cc2ccc(C(F)(F)F)cc2)S(=O)(=O)c2c(F)c(F)c(F)c(F)c2F)c2ccc(C(=O)O)cc2OC2CC2)cc(C2CC2)c1` [Compound 1136, 4-(N-(3-(tert-butyl)-5-cyclopropylbenzyl)-2-(N-(4-(trifluoromethyl)benzyl)-(2,3,4,5,6-pentafluoro-phenyl)sulfonamido)acetamido)-3-cyclopropoxybenzoic acid], the half-life at 25 μM in the data set with glutathione (GSH) lay in the range of 9.23 to 1670 h. The IC50 in the data set with MV4-11 cells lay in the range of 1000 to 3160 nM.
In the same order, the values of `O=C(O)c1ccc(N(C(=O)CN(Cc2c(F)cc(F)cc2F)S(=O)(=O)c2c(F)c(F)c(F)c(F)c2F)C2CCC2)c(OC2CC2)c1` [Compound 1137, 4-(N-cyclobutyl-2-(N-(2,4,6-trifluorobenzyl)-(2,3,4,5,6-pentafluoro-phenyl)sulfonamido)acetamido)-3-cyclopropoxybenzoic acid] are 0.00167 to 2.37 h and 1000 to 3160 nM.
The corresponding values for `COc1cc(C(=O)N(C)S(C)(=O)=O)ccc1N(Cc1cc(C2CC2)cc(C(C)(C)C)c1)C(=O)CN(Cc1cnccc1C(F)(F)F)S(=O)(=O)c1c(F)c(F)c(F)c(F)c1F` [Compound 1147, 4-(N-(3-(tert-butyl)-5-cyclopropylbenzyl)-2-(N-((4-(trifluoromethyl)pyridin-3-yl)methyl)-(2,3,4,5,6-pentafluoro-phenyl)sulfonamido)acetamido)-3-methoxy-N-methyl-N-(methylsulfonyl) benzamide] are 9.23 to 1670 h and 0.01 to 316 nM.
The corresponding values for `COc1cc(C(=O)O)ccc1N(Cc1cccc(C(C)(C)C)c1)C(=O)CN(Cc1cnccc1C(F)(F)F)S(=O)(=O)c1c(F)c(F)c(F)c(F)c1F` [Compound 1149, 4-(N-(3-(tert-butyl)benzyl)-2-(N-((4-(trifluoromethyl)pyridin-3-yl)methyl)-(2,3,4,5,6-pentafluoro-phenyl)sulfonamido)acetamido)-3-methoxybenzoic acid] are 0.00167 to 2.37 h and 316 to 1000 nM.

The values are drawn from US20230159445A1, “STAT INHIBITORY COMPOUNDS AND COMPOSITIONS” (JANPIX LIMITED, priority 2020, published 2023).
